{"source": "paper PMC11864979", "about": "“First-in-class ultralong-target-residence-time p38α inhibitors as a mitosis-targeted therapy for colorectal cancer” (Nature Cancer, 2025)", "experiment_in_all_cases": "selectivity profiling in a panel of 340 wild-type kinases (Reaction Biology Europe)", "assay_type_in_all_cases": "binding", "key": {"340 wild-type kinases [1]": {"target": "T1, 340 wild-type kinases (Homo sapiens, UniProt P08922)", "T1 construct": "purchased Reaction Biology Europe", "T1 sequence (P08922 28-2347)": "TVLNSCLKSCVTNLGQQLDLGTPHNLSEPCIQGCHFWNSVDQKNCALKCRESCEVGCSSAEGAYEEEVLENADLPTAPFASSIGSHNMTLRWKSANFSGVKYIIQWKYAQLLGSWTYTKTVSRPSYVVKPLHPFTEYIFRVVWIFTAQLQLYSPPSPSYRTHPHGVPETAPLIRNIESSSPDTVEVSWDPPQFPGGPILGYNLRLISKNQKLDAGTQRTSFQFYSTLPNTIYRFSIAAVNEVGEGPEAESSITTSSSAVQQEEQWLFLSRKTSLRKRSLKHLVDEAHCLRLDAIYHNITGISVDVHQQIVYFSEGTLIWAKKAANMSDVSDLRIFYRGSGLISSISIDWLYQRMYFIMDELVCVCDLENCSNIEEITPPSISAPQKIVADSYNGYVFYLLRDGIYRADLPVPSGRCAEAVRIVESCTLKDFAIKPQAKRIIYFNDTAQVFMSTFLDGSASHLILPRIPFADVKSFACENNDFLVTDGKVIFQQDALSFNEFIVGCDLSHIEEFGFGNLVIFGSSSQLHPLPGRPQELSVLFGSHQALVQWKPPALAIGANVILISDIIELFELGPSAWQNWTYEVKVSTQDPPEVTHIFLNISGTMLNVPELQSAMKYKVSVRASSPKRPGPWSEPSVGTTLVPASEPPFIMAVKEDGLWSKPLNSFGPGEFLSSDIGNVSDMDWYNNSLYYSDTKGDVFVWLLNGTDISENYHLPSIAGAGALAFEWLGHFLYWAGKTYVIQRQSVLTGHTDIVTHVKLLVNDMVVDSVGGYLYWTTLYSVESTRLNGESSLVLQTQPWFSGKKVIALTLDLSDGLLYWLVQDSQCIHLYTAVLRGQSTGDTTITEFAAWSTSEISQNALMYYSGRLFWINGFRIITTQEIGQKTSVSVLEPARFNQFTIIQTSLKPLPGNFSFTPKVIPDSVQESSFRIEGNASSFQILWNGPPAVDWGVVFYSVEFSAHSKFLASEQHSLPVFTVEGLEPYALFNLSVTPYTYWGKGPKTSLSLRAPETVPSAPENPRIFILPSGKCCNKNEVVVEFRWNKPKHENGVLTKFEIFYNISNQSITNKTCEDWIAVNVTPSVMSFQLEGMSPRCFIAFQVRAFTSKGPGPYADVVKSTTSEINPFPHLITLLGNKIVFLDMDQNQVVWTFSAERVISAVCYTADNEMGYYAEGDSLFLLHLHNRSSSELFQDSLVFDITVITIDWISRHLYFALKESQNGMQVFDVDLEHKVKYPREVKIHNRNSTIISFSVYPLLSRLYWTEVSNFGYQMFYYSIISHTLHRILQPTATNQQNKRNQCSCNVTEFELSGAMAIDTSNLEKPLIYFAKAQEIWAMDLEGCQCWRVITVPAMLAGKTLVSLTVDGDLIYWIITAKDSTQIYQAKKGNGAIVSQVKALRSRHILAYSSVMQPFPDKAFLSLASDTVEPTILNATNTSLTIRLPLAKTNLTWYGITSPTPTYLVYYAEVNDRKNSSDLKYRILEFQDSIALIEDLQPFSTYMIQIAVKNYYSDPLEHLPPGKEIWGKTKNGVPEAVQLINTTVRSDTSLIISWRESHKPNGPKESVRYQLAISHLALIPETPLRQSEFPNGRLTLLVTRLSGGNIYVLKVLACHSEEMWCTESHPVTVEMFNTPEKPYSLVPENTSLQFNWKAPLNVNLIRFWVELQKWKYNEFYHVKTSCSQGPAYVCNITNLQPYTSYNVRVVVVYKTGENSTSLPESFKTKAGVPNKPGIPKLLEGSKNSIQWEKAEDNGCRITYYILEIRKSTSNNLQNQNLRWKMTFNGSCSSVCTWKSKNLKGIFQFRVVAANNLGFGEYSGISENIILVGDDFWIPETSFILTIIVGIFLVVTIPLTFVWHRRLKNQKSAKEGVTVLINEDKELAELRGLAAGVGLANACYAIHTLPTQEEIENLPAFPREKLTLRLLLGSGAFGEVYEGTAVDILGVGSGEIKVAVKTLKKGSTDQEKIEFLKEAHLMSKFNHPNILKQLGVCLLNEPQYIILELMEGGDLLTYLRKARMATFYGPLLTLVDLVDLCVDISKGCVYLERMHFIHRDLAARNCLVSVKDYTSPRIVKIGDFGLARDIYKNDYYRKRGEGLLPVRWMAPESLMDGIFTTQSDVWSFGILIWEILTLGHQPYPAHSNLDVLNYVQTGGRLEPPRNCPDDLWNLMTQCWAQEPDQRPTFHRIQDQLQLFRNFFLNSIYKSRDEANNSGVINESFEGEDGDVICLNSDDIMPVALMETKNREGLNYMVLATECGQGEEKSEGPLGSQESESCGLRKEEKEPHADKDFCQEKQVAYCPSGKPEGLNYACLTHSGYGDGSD"}, "340 wild-type kinases [2]": {"target": "T2, 340 wild-type kinases (Homo sapiens, UniProt P16591)", "T2 construct": "purchased Reaction Biology Europe", "T2 sequence (P16591 whole entry)": "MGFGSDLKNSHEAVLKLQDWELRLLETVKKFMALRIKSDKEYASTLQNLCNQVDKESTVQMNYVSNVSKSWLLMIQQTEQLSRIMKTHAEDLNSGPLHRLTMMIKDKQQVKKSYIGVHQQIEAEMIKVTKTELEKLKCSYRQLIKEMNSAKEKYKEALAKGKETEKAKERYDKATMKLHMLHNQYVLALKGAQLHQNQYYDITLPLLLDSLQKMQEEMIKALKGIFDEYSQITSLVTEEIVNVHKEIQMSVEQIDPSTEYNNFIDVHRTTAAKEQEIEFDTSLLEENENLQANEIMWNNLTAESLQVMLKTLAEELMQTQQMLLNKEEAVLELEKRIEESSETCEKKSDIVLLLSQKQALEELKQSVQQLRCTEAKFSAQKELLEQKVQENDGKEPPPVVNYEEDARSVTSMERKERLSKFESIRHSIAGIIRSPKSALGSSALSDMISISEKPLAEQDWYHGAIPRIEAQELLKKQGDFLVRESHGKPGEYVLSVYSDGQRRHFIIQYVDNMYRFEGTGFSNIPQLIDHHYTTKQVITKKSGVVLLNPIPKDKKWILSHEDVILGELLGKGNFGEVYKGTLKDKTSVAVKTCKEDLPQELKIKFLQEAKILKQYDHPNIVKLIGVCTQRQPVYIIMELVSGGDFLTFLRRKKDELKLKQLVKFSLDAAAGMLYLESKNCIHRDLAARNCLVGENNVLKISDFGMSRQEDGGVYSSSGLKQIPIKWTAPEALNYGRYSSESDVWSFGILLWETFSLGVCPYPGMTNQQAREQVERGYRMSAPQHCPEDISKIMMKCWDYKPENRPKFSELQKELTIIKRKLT"}, "340 wild-type kinases [3]": {"target": "T3, 340 wild-type kinases (Homo sapiens, UniProt P32298)", "T3 construct": "purchased Reaction Biology Europe"}, "340 wild-type kinases [4]": {"target": "T4, 340 wild-type kinases (Homo sapiens, UniProt P41743)", "T4 construct": "purchased Reaction Biology Europe", "T4 sequence (P41743 1-596)": "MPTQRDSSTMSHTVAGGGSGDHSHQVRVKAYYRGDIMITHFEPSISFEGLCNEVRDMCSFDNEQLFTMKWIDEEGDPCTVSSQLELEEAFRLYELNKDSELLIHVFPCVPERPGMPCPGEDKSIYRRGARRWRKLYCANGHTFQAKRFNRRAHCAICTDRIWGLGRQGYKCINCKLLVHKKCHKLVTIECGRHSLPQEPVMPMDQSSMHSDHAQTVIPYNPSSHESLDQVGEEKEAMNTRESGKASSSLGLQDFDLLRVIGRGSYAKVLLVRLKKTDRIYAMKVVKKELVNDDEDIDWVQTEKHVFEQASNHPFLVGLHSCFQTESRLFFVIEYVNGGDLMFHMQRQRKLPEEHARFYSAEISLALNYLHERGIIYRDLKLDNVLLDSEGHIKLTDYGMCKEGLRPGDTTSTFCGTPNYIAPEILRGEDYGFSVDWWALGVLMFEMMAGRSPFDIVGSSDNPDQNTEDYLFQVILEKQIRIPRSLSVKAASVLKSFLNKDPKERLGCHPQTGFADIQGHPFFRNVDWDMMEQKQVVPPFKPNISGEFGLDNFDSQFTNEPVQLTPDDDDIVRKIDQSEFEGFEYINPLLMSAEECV"}, "340 wild-type kinases [5]": {"target": "T5, 340 wild-type kinases (Homo sapiens, UniProt Q05397)", "T5 construct": "purchased Reaction Biology Europe", "T5 sequence (Q05397 whole entry)": "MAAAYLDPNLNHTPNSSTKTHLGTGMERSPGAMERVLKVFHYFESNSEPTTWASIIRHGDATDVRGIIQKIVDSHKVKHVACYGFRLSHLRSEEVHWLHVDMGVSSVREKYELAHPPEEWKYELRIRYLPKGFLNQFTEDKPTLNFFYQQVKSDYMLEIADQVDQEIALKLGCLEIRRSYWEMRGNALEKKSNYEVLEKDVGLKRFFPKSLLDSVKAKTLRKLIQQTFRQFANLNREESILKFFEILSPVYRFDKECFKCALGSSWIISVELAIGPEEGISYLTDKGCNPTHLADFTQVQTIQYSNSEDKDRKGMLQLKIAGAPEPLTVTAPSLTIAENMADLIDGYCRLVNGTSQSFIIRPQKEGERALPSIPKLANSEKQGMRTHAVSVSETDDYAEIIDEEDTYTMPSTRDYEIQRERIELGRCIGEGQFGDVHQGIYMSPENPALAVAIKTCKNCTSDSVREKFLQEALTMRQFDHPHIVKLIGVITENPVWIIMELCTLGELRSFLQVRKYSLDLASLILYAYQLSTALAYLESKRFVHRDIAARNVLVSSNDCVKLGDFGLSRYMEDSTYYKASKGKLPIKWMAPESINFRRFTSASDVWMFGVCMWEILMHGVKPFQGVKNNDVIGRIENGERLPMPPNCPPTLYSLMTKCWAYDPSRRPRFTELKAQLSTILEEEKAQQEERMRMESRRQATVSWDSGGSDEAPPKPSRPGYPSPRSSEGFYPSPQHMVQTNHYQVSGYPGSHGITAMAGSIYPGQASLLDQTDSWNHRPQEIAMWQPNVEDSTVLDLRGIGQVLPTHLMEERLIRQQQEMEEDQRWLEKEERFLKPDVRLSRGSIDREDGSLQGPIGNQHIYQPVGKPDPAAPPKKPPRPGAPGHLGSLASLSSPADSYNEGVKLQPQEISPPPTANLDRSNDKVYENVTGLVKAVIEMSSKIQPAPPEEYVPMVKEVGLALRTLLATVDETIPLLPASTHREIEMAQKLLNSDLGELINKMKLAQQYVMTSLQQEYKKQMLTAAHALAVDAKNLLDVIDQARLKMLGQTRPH"}, "340 wild-type kinases [6]": {"target": "T6, 340 wild-type kinases (Homo sapiens, UniProt Q86V86)", "T6 construct": "purchased Reaction Biology Europe"}, "340 wild-type kinases [7]": {"target": "T7, 340 wild-type kinases (Homo sapiens, UniProt Q9H2K8)", "T7 construct": "purchased Reaction Biology Europe", "T7 sequence (Q9H2K8 1-898)": "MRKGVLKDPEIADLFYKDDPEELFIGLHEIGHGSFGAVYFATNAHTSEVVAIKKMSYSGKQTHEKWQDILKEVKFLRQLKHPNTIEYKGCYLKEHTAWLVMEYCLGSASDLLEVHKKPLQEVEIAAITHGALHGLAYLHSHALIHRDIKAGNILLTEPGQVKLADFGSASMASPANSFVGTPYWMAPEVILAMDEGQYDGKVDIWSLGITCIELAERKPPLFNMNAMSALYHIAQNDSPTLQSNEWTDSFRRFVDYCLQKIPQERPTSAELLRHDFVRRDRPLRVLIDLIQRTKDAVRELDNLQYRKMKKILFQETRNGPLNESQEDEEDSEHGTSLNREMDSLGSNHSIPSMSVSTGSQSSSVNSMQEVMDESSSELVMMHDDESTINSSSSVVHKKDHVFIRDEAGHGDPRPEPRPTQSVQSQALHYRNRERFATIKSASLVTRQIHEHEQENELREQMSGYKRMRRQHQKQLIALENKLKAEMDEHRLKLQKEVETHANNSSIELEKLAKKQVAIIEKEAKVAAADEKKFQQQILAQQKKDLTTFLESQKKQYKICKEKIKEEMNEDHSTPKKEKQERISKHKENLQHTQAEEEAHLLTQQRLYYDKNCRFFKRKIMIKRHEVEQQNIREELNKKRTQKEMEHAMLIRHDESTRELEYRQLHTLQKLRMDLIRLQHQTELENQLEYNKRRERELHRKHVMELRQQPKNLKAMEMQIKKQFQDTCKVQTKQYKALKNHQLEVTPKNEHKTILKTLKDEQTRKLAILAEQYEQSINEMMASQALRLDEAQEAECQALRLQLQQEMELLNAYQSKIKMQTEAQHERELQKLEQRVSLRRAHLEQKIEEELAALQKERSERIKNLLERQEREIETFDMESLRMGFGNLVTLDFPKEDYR"}, "340 wild-type kinases [8]": {"target": "T8, 340 wild-type kinases (Homo sapiens, UniProt Q9HAZ1)", "T8 construct": "purchased Reaction Biology Europe", "T8 sequence (Q9HAZ1 whole entry)": "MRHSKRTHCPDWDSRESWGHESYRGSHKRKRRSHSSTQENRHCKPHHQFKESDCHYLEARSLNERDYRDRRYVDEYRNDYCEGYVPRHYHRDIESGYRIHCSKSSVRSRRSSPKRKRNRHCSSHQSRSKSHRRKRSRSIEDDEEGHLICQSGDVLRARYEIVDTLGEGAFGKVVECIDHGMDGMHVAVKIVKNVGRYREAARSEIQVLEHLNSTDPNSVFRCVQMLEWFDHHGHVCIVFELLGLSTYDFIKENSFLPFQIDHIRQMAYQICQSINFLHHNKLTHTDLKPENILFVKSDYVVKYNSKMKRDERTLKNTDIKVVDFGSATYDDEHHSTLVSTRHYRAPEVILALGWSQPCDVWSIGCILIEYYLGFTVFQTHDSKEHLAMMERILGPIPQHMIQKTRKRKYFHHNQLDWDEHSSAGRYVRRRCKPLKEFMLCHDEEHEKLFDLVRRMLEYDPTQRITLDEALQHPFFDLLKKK"}}, "note": "Read-outs that look alike come from different tables or passages of the source."}
{"smiles": "CNC(=O)c1ccc2c(c1)C(=O)c1ccc(Nc3ccc(F)c(NC(=O)C4CC4)c3)cc1CC2", "note": "[Compound 2015]", "values": [{"measurement": "remaining activity at 0.2 µM", "setting": "340 wild-type kinases [1]; 0.2 µM 2015, read-out: ROS residual activity", "value": 114, "unit": "%"}, {"measurement": "remaining activity at 1 µM", "setting": "340 wild-type kinases [1]; 1 µM 2015, read-out: ROS residual activity", "value": 94.6, "unit": "%"}, {"measurement": "remaining activity at 0.2 µM", "setting": "340 wild-type kinases [1]; ROS, 0.2 µM, read-out: residual activity", "value": 114, "unit": "%"}, {"measurement": "remaining activity at 1 µM", "setting": "340 wild-type kinases [1]; ROS, 1 µM, read-out: residual activity", "value": 94.6, "unit": "%"}, {"measurement": "remaining activity at 0.2 µM", "setting": "340 wild-type kinases [2]; 0.2 µM 2015, read-out: FER residual activity", "value": 125, "unit": "%"}, {"measurement": "remaining activity at 1 µM", "setting": "340 wild-type kinases [2]; 1 µM 2015, read-out: FER residual activity", "value": 102, "unit": "%"}, {"measurement": "remaining activity at 0.2 µM", "setting": "340 wild-type kinases [2]; FER, 0.2 µM, read-out: residual activity", "value": 125, "unit": "%"}, {"measurement": "remaining activity at 1 µM", "setting": "340 wild-type kinases [2]; FER, 1 µM, read-out: residual activity", "value": 102, "unit": "%"}, {"measurement": "remaining activity at 0.2 µM", "setting": "340 wild-type kinases [3]; 0.2 µM 2015, read-out: GRK4 residual activity", "value": 123, "unit": "%"}, {"measurement": "remaining activity at 1 µM", "setting": "340 wild-type kinases [3]; 1 µM 2015, read-out: GRK4 residual activity", "value": 104, "unit": "%"}, {"measurement": "remaining activity at 0.2 µM", "setting": "340 wild-type kinases [3]; GRK4, 0.2 µM, read-out: residual activity", "value": 123, "unit": "%"}, {"measurement": "remaining activity at 1 µM", "setting": "340 wild-type kinases [3]; GRK4, 1 µM, read-out: residual activity", "value": 104, "unit": "%"}, {"measurement": "remaining activity at 0.2 µM", "setting": "340 wild-type kinases [4]; 0.2 µM 2015, read-out: PKCiota residual activity", "value": 104, "unit": "%"}, {"measurement": "remaining activity at 1 µM", "setting": "340 wild-type kinases [4]; 1 µM 2015, read-out: PKCiota residual activity", "value": 92, "unit": "%"}, {"measurement": "remaining activity at 0.2 µM", "setting": "340 wild-type kinases [4]; PKCiota, 0.2 µM, read-out: residual activity", "value": 104, "unit": "%"}, {"measurement": "remaining activity at 1 µM", "setting": "340 wild-type kinases [4]; PKCiota, 1 µM, read-out: residual activity", "value": 92, "unit": "%"}, {"measurement": "remaining activity at 0.2 µM", "setting": "340 wild-type kinases [5]; 0.2 µM 2015, read-out: FAK residual activity", "value": 121, "unit": "%"}, {"measurement": "remaining activity at 1 µM", "setting": "340 wild-type kinases [5]; 1 µM 2015, read-out: FAK residual activity", "value": 115, "unit": "%"}, {"measurement": "remaining activity at 0.2 µM", "setting": "340 wild-type kinases [5]; FAK, 0.2 µM, read-out: residual activity", "value": 121, "unit": "%"}, {"measurement": "remaining activity at 1 µM", "setting": "340 wild-type kinases [5]; FAK, 1 µM, read-out: residual activity", "value": 115, "unit": "%"}, {"measurement": "remaining activity at 0.2 µM", "setting": "340 wild-type kinases [6]; 0.2 µM 2015, read-out: PIM3 residual activity", "value": 95.8, "unit": "%"}, {"measurement": "remaining activity at 1 µM", "setting": "340 wild-type kinases [6]; 1 µM 2015, read-out: PIM3 residual activity", "value": 92.3, "unit": "%"}, {"measurement": "remaining activity at 0.2 µM", "setting": "340 wild-type kinases [6]; PIM3, 0.2 µM, read-out: residual activity", "value": 95.8, "unit": "%"}, {"measurement": "remaining activity at 1 µM", "setting": "340 wild-type kinases [6]; PIM3, 1 µM, read-out: residual activity", "value": 92.2, "unit": "%"}, {"measurement": "remaining activity at 0.2 µM", "setting": "340 wild-type kinases [7]; 0.2 µM 2015, read-out: TAOK3 residual activity", "value": 101, "unit": "%"}, {"measurement": "remaining activity at 1 µM", "setting": "340 wild-type kinases [7]; 1 µM 2015, read-out: TAOK3 residual activity", "value": 98.6, "unit": "%"}, {"measurement": "remaining activity at 0.2 µM", "setting": "340 wild-type kinases [7]; TAOK3, 0.2 µM, read-out: residual activity", "value": 101, "unit": "%"}, {"measurement": "remaining activity at 1 µM", "setting": "340 wild-type kinases [7]; TAOK3, 1 µM, read-out: residual activity", "value": 98.6, "unit": "%"}, {"measurement": "remaining activity at 0.2 µM", "setting": "340 wild-type kinases [8]; 0.2 µM 2015, read-out: CLK4 residual activity", "value": 120, "unit": "%"}, {"measurement": "remaining activity at 0.2 µM", "setting": "340 wild-type kinases [8]; CLK4, 0.2 µM, read-out: residual activity", "value": 120, "unit": "%"}, {"measurement": "remaining activity at 1 µM", "setting": "340 wild-type kinases [8]; CLK4, 1 µM, read-out: residual activity", "value": 118, "unit": "%"}]}
